Reference: the supplement of paper PMC10307832

How the values were obtained:
Test in all cases: relative viability (nuclei count vs DMSO), 5 days (fraction); higher = more cells survive
Ruxolitinib + Lapatinib = compound: N#CC[C@H](C1CCCC1)n1cc(-c2ncnc3[nH]ccc23)cn1 [Ruxolitinib] + CS(=O)(=O)CCNCc1ccc(-c2ccc3ncnc(Nc4ccc(OCc5cccc(F)c5)c(Cl)c4)c3c2)o1 [Lapatinib] (partner 2 µM)
How it was run: (§1)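 Relative viability is defined as nuclei in treated wells over nuclei in vehicle wells. Duplicate plates were run and medians reported. Lung cancer cell lines in 1536-well plates were dosed by pin tool one day after seeding, with one drug or with a fixed anchor-drug dose plus five library-drug doses (not always all listed) in √10 steps, and nuclei were counted after 5 days.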

Vismodegib + Pemetrexed = compound: CS(=O)(=O)c1ccc(C(=O)Nc2ccc(Cl)c(-c3ccccn3)c2)c(Cl)c1 [Vismodegib] + Nc1nc2[nH]cc(CCc3ccc(C(=O)N[C@@H](CCC(=O)O)C(=O)O)cc3)c2c(=O)[nH]1 [Pemetrexed] (partner 0.2 µM)
How it was run: as §1

Ruxolitinib + Bortezomib = compound: N#CC[C@H](C1CCCC1)n1cc(-c2ncnc3[nH]ccc23)cn1 [Ruxolitinib] + CC(C)C[C@H](NC(=O)[C@H](Cc1ccccc1)NC(=O)c1cnccn1)B(O)O [Bortezomib] (partner 0.002 µM)
How it was run: as §1

Ruxolitinib + Tozasertib = compound: N#CC[C@H](C1CCCC1)n1cc(-c2ncnc3[nH]ccc23)cn1 [Ruxolitinib] + Cc1cc(Nc2cc(N3CCN(C)CC3)nc(Sc3ccc(NC(=O)C4CC4)cc3)n2)n[nH]1 [Tozasertib] (partner 0.1 µM)
How it was run: as §1

Cell Line | relative viability (Ruxolitinib + Lapatinib; first compound 0.08 µM) | relative viability (Ruxolitinib + Lapatinib; first compound 0.253 µM) | relative viability (Ruxolitinib + Lapatinib; first compound 0.8 µM) | relative viability (Ruxolitinib + Lapatinib; first compound 2.53 µM) | relative viability (Ruxolitinib + Lapatinib; first compound 8 µM) | relative viability (Vismodegib + Pemetrexed; first compound 0.08 µM) | relative viability (Vismodegib + Pemetrexed; first compound 0.253 µM) | relative viability (Vismodegib + Pemetrexed; first compound 0.8 µM) | relative viability (Vismodegib + Pemetrexed; first compound 2.53 µM) | relative viability (Vismodegib + Pemetrexed; first compound 8 µM) | relative viability (Ruxolitinib + Bortezomib; first compound 0.08 µM) | relative viability (Ruxolitinib + Bortezomib; first compound 0.253 µM) | relative viability (Ruxolitinib + Bortezomib; first compound 0.8 µM) | relative viability (Ruxolitinib + Bortezomib; first compound 2.53 µM) | relative viability (Ruxolitinib + Bortezomib; first compound 8 µM) | relative viability (Ruxolitinib + Tozasertib; first compound 0.08 µM) | relative viability (Ruxolitinib + Tozasertib; first compound 0.253 µM) | relative viability (Ruxolitinib + Tozasertib; first compound 0.8 µM) | relative viability (Ruxolitinib + Tozasertib; first compound 2.53 µM) | relative viability (Ruxolitinib + Tozasertib; first compound 8 µM)
NCI-H2009 | 1.05 | 0.997 | 1.09 | 0.737 | 0.633 | 1.02 | 1.03 | 1.03 | 0.941 | 0.965 | 1.19 | 0.963 | 1.31 | 0.828 | 0.646 | 0.781 | 0.754 | 0.853 | 0.717 | 0.578
NCI-H2126 | 0.907 | 0.776 | 0.837 | 0.874 | 0.878 | 0.717 | 0.664 | 0.661 | 0.623 | 0.681 | 1.12 | 1.21 | 1.24 | 1.15 | 1.18 | 0.864 | 0.848 | 1.1 | 0.975 | 0.838
NCI-H460 | 0.95 | 1.06 | 1.21 | 0.759 | 1.08 | 0.0652 | 0.0637 | 0.0589 | 0.0651 | 0.0689 | 1.06 | 1.11 | 1.29 | 1.01 | 0.86 |  | 0.601 | 0.606 | 0.578 | 0.744
NCI-H647 | 1.11 | 1.09 | 1.19 | 0.651 | 1.02 | 0.156 | 0.188 | 0.171 | 0.15 | 0.184 | 0.867 | 0.942 | 1.23 | 0.783 | 0.885 | 0.297 | 0.237 | 0.224 | 0.378 | 0.297
NCI-H23 | 1.03 | 1.27 | 1.2 | 0.775 | 0.852 | 0.7 | 0.539 | 0.569 | 0.639 | 0.65 | 1.12 | 1.02 | 1.34 | 0.89 | 0.731 | 0.434 | 0.418 | 0.437 | 0.401 | 0.301
H3255 |  | 0.236 | 0.249 | 0.28 | 0.226 | 0.56 | 0.57 | 0.532 | 0.485 | 0.542 |  | 0.595 | 0.836 | 0.6 | 0.598 | 0.612 | 0.568 | 0.841 | 0.56 | 0.682
NCI-H1651 | 0.958 | 0.92 | 0.884 | 0.767 | 0.903 | 0.518 | 0.65 | 0.594 | 0.473 | 0.48 | 0.944 | 0.923 | 0.937 | 0.794 | 0.969 | 0.714 | 0.637 | 0.64 | 0.573 | 0.682
NCI-H1734 | 1.09 | 1 | 1.21 | 0.87 | 0.936 | 0.433 | 0.399 | 0.433 | 0.429 | 0.414 | 0.928 | 0.924 | 0.983 | 0.74 | 0.835 | 0.332 | 0.25 | 0.281 | 0.209 | 0.223
CAL-12T |  | 0.643 | 0.88 | 0.697 | 0.623 | 1.12 | 1.13 | 1.13 | 1.14 | 1.13 |  | 0.856 | 1.1 | 0.979 | 0.535 | 0.348 | 0.412 | 0.344 | 0.313 | 0.312
NCI-H1993 | 0.821 | 0.696 | 0.977 | 0.863 | 0.78 | 0.559 | 0.583 | 0.564 | 0.68 | 0.63 | 0.893 | 1.02 | 1.23 | 1.26 | 1.29 | 0.585 | 0.618 | 0.643 | 0.631 | 0.551
NCI-H1755 | 1.05 | 1.02 | 1.04 | 0.977 | 0.722 | 0.441 | 0.417 | 0.365 | 0.426 | 0.432 | 0.984 | 1.04 | 1.03 | 0.853 | 0.658 | 0.561 | 0.525 | 0.622 | 0.616 | 0.557
SK-LU-1 | 0.973 | 0.991 | 0.896 | 0.819 | 0.693 | 0.971 | 1.03 | 0.982 | 0.909 | 0.845 | 0.465 | 1.07 | 1.3 | 1.03 | 0.936 | 0.363 | 0.328 | 0.412 | 0.372 | 0.338
HCC-78 | 0.37 | 0.294 | 0.441 | 0.553 | 0.199 | 0.907 | 0.951 | 0.961 | 0.785 | 0.891 | 0.379 | 0.365 | 0.441 | 0.354 | 0.391 | 0.512 | 0.45 | 0.414 | 0.55 | 0.5
LCLC-97TM1 | 0.877 | 0.833 | 0.852 | 0.83 | 1.21 | 0.205 | 0.171 | 0.149 | 0.176 | 0.178 | 0.407 | 0.69 | 0.635 | 0.906 | 0.526 | 0.178 | 0.316 | 0.229 | 0.305 | 0.348
NCI-H661 | 0.518 | 0.564 | 0.614 | 0.452 | 0.606 | 0.915 | 0.854 | 0.887 | 0.876 | 0.941 | 0.66 | 0.858 | 0.998 | 0.792 | 0.908 | 0.358 | 0.354 | 0.365 | 0.363 | 0.352
SW 1573 | 1.05 | 0.99 | 1.16 | 1.07 | 1.09 | 0.79 | 0.894 | 0.764 | 0.855 | 0.865 | 0.981 | 1.04 | 1.01 | 0.939 | 0.896 | 0.209 | 0.182 | 0.167 | 0.183 | 0.16
NCI-H1792 | 0.936 | 0.831 | 0.846 | 0.845 | 0.824 | 0.927 | 0.881 | 0.673 | 0.773 | 0.698 | 0.957 | 0.905 | 0.911 | 0.834 | 0.774 |  |  |  |  | 
